Data from patent publication US9603922B2, “Modulation of NKT cell activity with antigen-loaded CD1d molecules” (VACCINEX, INC., priority 2007, dated 2017).

Columns and labels:
iNKT cells [1] = experiment: Activity in vitro of ceramide-like glycolipid antigens (Table 3); format: cell-based, mouse; conditions: partly also in vivo
Method: The ability of a composition of the present invention to modulate an immune response can be readily determined by an in vitro assay. NKT cells for use in the assays include transformed NKT cell lines, or NKT cells which are isolated from a mammal, e.g., from a human or from a rodent such as a mouse. NKT cells can be isolated from a mammal by sorting cells that bind CD1d:α-GalCer tetramers.
The NKT cells employed in the assays are incubated under conditions suitable for proliferation. […] Serial dilutions of the compound can be added to the NKT cell culture medium.
(§1) Alternatively, rather than measurement of an expressed protein such as IL-4 or IFN-γ, modulation of NKT cell activation can be determined by changes in antigen-dependent T cell proliferation as measured by radiolabelling techniques as are recognized in the art. For example, a labeled (e.g., tritiated) nucleotide may be introduced to an assay culture medium. Incorporation of such a tagged nucleotide into DNA serves as a measure of T cell proliferation. […] A difference in the level of T cell proliferation following contact with the compound of the invention indicates the complex modulates activity of the T cells. For example, a decrease in NKT cell proliferation indicates the compound can suppress an immune response. An increase in NKT cell proliferation indicates the compound can stimulate an immune response.

human iNKT cells = experiment: Recognition by human iNKT cells (Table 3 comments); format: cell-based
mouse iNKT hybridoma = experiment: iNKT hybridoma stimulation assay (Table 3 comments); format: cell-based
Description: (§2) The ability of a composition of the present invention to modulate an immune response can be readily determined by an in vitro assay. NKT cells for use in the assays include transformed NKT cell lines, or NKT cells which are isolated from a mammal, e.g., from a human or from a rodent such as a mouse. NKT cells can be isolated from a mammal by sorting cells that bind CD1d:α-GalCer tetramers. See, for example, Benlagha et al., J Exp Med 191 (2000), pp. 1895-1903; Matsuda et al., J Exp Med 192 (2000), pp. 741-754; and Karadimitris et al., Proc Natl Acad Sci USA 98 (2001), pp. 3294-3298. A suitable assay to determine if a compound of the present invention is capable of modulating the activity of NKT cells is conducted by coculturing NKT cells and antigen presenting cells, adding the particular compound of interest to the culture medium that targets either the antigen presenting cells or the NKT cells directly, and measuring IL-4 or IFN-γ production. A significant increase or decrease in IL-4 or IFN-γ production over the same co-culture of cells in the absence of the compound of the invention or, preferably, in the presence of a compound of the invention with a non-targeting antibody indicates stimulation or inhibition of NKT cells.
The NKT cells employed in the assays are incubated under conditions suitable for proliferation. For example, an NKT cell hybridoma is suitably incubated at about 37° C. and 5% CO2 in complete culture medium (RPMI 1640 supplemented with 10% FBS, penicillin/streptomycin, L-glutamine and 5×10−5 M 2-mercaptoethanol). Serial dilutions of the compound can be added to the NKT cell culture medium.

iNKT cells [2] = experiment: Activity in vivo of ceramide-like glycolipid antigens, serum cytokine response (Table 3); conditions: serum cytokines
Description: In vivo assays also may be suitably employed to determine the ability of a composition of the invention to modulate the activity of NKT cells. For example, a composition of interest can be assayed for its ability to stimulate NKT cell activation or inhibit tumor growth. For example, a composition of the invention can be administered to a mammal such as a mouse, before or after challenge with a tumorigenic dose of transformed cells and the presence or size of growing tumors may be monitored.

SLE in NZB/W F1 mice = SLE in NZB/W F1 mice (Table 3 comments); format: in vivo, mouse
splenocytes = experiment: Splenocyte stimulation assay: proliferation and cytokine secretion (Table 3 comments); format: cell-based, mouse; conditions: for Comments: cytokine secretion (IL-4, IFNγ): cytokine secretion assays; for Comments: IL-4 relative to IFNγ: in vitro with splenocytes from NZB/W F1 mice
Description: as §2, §1

iNKT cells [3] = conditions: reported by others, in vivo IFNγ; cited from earlier work
[4] = system: mouse iNKT hybridoma / human CD1d + HeLa cells; experiment: Presentation to mouse iNKT hybridoma by human CD1d + HeLa cells (Table 3 comments); format: cell-based

CCCCCCCCCCCCCCCCCCCCCCCC(=O)N[C@@H](COC1OC(CO)C(O)C(O)C1O)[C@H](O)[C@H](O)CCCCC (stereo partly drawn) [AH04-1, reference compound]
Comments: iNKT agonist activity and cytokine profile in words (iNKT cells [1]): Weaker agonist than DB03-4 in our hands, and skewing of cytokine response not very impressive in most assays
Comments: recognition by human iNKT cells (human iNKT cells): seems NOT to be recognized by human iNKT cells

CCCCCCCCCCCCCCCCCCCCCCCC(=O)N[C@@H](COC1OC(CO)C(O)C(O)C1O)[C@H](O)CCCCCC (stereo partly drawn) [AH04-2]
Comments: activity in iNKT hybridoma stimulation assay (mouse iNKT hybridoma): About a half log more potent than OCH in hybridoma stimulation assay

CCCCCCCCCCCCCCCCCCCCCCCC(=O)N[C@@H](COC1OC(CO)C(O)C(O)C1O)[C@H](O)[C@H](O)CCCCCCCCCCCCCC (stereo partly drawn) [DB02-1]
Comments: iNKT agonist activity and cytokine profile in words (iNKT cells [1]): Moderate to weak iNKT agonist in vitro and in vivo. Gives reasonably strong early IL-4 response, with reduced late IFNγ like DB03-4 or OCH.

CCCC/C=C\C/C=C\CCCCCCCCCC(=O)N[C@@H](COC1OC(CO)C(O)C(O)C1O)[C@H](O)[C@H](O)CCCCCCCCCCCCCC (stereo partly drawn) [DB03-4]
Comments: iNKT agonist activity and cytokine profile in words (iNKT cells [1]): “Type 2 Cytokine bias”: Strong inducer of iNKT cell IL-4 response, with blunted IFNγ and NK cell transactivation.

CCCCC/C=C\C/C=C\C/C=C\C/C=C\CCCC(=O)N[C@@H](COC1OC(CO)C(O)C(O)C1O)[C@H](O)[C@H](O)CCCCCCCCCCCCCC (stereo partly drawn) [DB03-5]
Comments: iNKT agonist activity and cytokine profile in words (iNKT cells [1]): “Type 2 Cytokine bias”: Strong inducer of iNKT cell IL-4 response, with blunted IFNγ and NK cell transactivation.

CCCCCCCCCCCCCCCCCCCCCCCC(=O)N[C@@H](COC1OC(C)[C@@H](O)C(O)C1O)[C@H](O)[C@H](O)CCCCCCCCCCCCCC (stereo partly drawn) [DB03-8]
Comments: iNKT agonist activity and cytokine profile in words (iNKT cells [1]): Weak iNKT agonist activity in vitro
Comments: in vivo cytokine response in words (iNKT cells [2]): No serum cytokine response in vivo
Comments: effect on SLE (SLE in NZB/W F1 mice): exacerbates SLE in NZB/W F1 mice

CCCCCCCCCCCCCCCCCCCCCCCCCC(=O)N[C@@H](COC1OC(CO)C(O)C(O)C1O)[C@H](O)[C@H](O)CCCCCCCCCCCCCC (stereo partly drawn) [DB04-1 (KRN 7000), reference compound]
Comments: iNKT agonist activity and cytokine profile in words (iNKT cells [1]): KRN7000. Strong agonist, mixed IL-4 and IFNγ response both in vivo and in vitro.

CCCCC/C=C\C=C\CCCCCCCCC(=O)N[C@@H](COC1OC(CO)C(O)C(O)C1O)[C@H](O)[C@H](O)CCCCCCCCCCCCCC (stereo partly drawn) [DB05-9]
Comments: iNKT agonist activity and cytokine profile in words (iNKT cells [1]): A potent Th2-biased agonist in vitro. Not tested yet in vivo (122206)

CCCCCC/C=C\C=C/CCCCCCCC(=O)N[C@@H](COC1OC(CO)C(O)C(O)C1O)[C@H](O)[C@H](O)CCCCCCCCCCCCCC (stereo partly drawn) [DB05-11]
Comments: iNKT agonist activity and cytokine profile in words (iNKT cells [1]): A potent Th2-biased analogue similar to DB05-9
Comments: splenocyte proliferation (splenocytes): possibly more active in proliferation assay

CCCCC\C=C/C=C/C=C/CCCCCCC(=O)N[C@@H](COC1OC(CO)C(O)C(O)C1O)[C@H](O)[C@H](O)CCCCCCCCCCCCCC (stereo partly drawn) [DB05-14]
Comments: cytokine secretion (IL-4, IFNγ) (splenocytes): strong IL-4 secretion bias
Comments: splenocyte proliferation (splenocytes): Very active in prolif

CCCC/C=C/C=C/C=C\CCCCCCCC(=O)N[C@@H](COC1OC(CO)C(O)C(O)C1O)[C@H](O)[C@H](O)CCCCCCCCCCCCCC (stereo partly drawn) [DB05-17]
Comments: cytokine secretion (IL-4, IFNγ) (splenocytes): moderately strong in cytokine secretion assays with moderate IL-4 predominance
Comments: splenocyte proliferation (splenocytes): Weak in splenocyte prolif

CCCCCCCCCCCCCCCCCCCCCCCCCC(=O)N[C@@H](COC1OC(C)[C@@H](O)C(O)C1O)[C@H](O)[C@H](O)CCCCCCCCCCCCCC (stereo partly drawn) [DB06-14]
Comments: cytokine secretion (IL-4, IFNγ) (splenocytes): moderate IL-4 secretion at high concentration with weak IFNg
Comments: activity in splenocyte stimulation assay (splenocytes; overall activity): Weakly active in splenocyte stimulation in vitro
Comments: splenocyte proliferation (splenocytes): Minimal or no prolif

CCCCC/C=C\C/C=C\CCCCCCCCCC(=O)N[C@@H](COC1OC(CO)C(O)C(O)C1O)[C@H](O)[C@H](O)CCCCCCCCCCCCCC (stereo partly drawn) [DB06-15]
Comments: cytokine secretion (IL-4, IFNγ) (splenocytes): Weak IL-4 and even weaker INFg secretion
Comments: splenocyte proliferation (splenocytes): Moderately active in splenocyte prolif

CCCCCCCCCCCCCCCCCCCCCCCCCC(=O)N[C@@H](CCC1OC(CO)C(O)C(O)C1O)[C@H](O)[C@H](O)CCCCCCCCCCCCCC (stereo partly drawn) [RF03-1]
Comments: reported agonist activity (iNKT cells [3]): C-glycoside of KRN7000. Reported to be strong agonist, with enhanced IFNγ production in vivo. May have slower kinetics of activation.

CCCCCCCCCCCCCCCCCCCCCCCCCC(=O)N[C@@H](CSC1OC(CO)C(O)C(O)C1O)[C@H](O)[C@H](O)CCCCCCCCCCCCCC (stereo partly drawn) [SKRN 7000, reference compound]
Comments: activity in iNKT hybridoma stimulation assay (mouse iNKT hybridoma): No agonist activity in iNKT hybridoma assay
Comments: autoreactivity of iNKT cell hybridoma (mouse iNKT hybridoma): seemed to reduce autoreactivity of iNKT cell hybridoma

CCCCCCCCCCCCCCCCCC(=O)N[C@@H](COC1OC(CO)C(O)C(O)C1O)[C@H](O)[C@H](O)CCCCCCCCCCCCCC (stereo partly drawn) [YTC03-15]
Comments: activity when presented to mouse iNKT hybridoma by human CD1d + HeLa cells [4]: EXTREMELY active when presented to mouse iNKT hybridoma by human CD1d + HeLa cells

CCCCCCCCCCCCCC[C@@H](O)[C@@H](O)[C@H](COC1OC(CO)C(O)C(O)C1O)NC(=O)C(c1ccccc1)c1ccccc1 (stereo partly drawn) [YTC03-17]
Comments: iNKT agonist activity and cytokine profile in words (iNKT cells [1]): Very strong agonist in some in vitro studies
Comments: in vivo cytokine response in words (iNKT cells [2]): no activity detectable in vivo (cytokine stimulation)

CCCCCCCCCCCCCC[C@@H](O)[C@@H](O)[C@H](COC1OC(CO)C(O)C(O)C1O)NC(=O)Cc1ccc(OC)c(OC)c1 (stereo partly drawn) [YTC03-24]
Comments: IL-4 relative to IFNγ (splenocytes): Possible enhanced IL-4 relative to IFNγ in vitro with splenocytes from NZB/W F1 mice

CCCCCCCCCCCCCC[C@@H](O)[C@@H](O)[C@H](COC1OC(CO)C(O)C(O)C1O)NC(=O)Cc1ccc(F)cc1 (stereo partly drawn) [YTC03-30]
Comments: IL-4 relative to IFNγ (splenocytes): Possible enhanced IL-4 relative to IFNγ
Comments: activity when presented to mouse iNKT hybridoma by human CD1d + HeLa cells [4]: EXTREMELY active

CCCCCCCCCCCCCC[C@@H](O)[C@@H](O)[C@H](COC1OC(CO)C(O)C(O)C1O)NC(=O)CCCCCCCCC (stereo partly drawn) [YTC03-34]
Comments: in vivo cytokine response in words (iNKT cells [2]): Active in vivo with good IL-4 production assoc. with weak IFNgamma and weak IL-12 p70
Comments: activity in iNKT hybridoma stimulation assay (mouse iNKT hybridoma): Moderate activity with mouse iNKT hybridoma
